Measurements: ChEMBL document CHEMBL5579851, “Synthesis and antifungal evaluation of novel triazole derivatives bearing a pyrazole-methoxyl moiety” (Eur J Med Chem, 2024)
Converted amounts (≈) assume the structure as drawn. The source made the active and inactive calls. No cut-off for these calls is given here.

How the values were obtained:
[1] = tested on: Candida albicans; experiment: Antifungal activity against Candida albicans SC5314 assessed as inhibition of fungal growth incubated for 48 hrs by CLSI based broth microdilution assay; format: functional
[2] = tested on: Candida albicans; experiment: Antifungal activity against Candida albicans 10231 assessed as inhibition of fungal growth incubated for 48 hrs by CLSI based broth microdilution assay; format: functional
[3] = tested on: Cryptococcus neoformans; experiment: Antifungal activity against Cryptococcus neoformans 32609 assessed as inhibition of fungal growth incubated for 72 hrs by CLSI based broth microdilution assay; format: functional
[4] = tested on: Nakaseomyces glabratus; experiment: Antifungal activity against Candida glabrata 537 assessed as inhibition of fungal growth incubated for 48 hrs by CLSI based broth microdilution assay; format: functional
[5] = tested on: Candida parapsilosis; experiment: Antifungal activity against Candida parapsilosis 22019 assessed as inhibition of fungal growth incubated for 48 hrs by CLSI based broth microdilution assay; format: functional; settings: Lodderomyces parapsilosis
[6] = tested on: Pichia kudriavzevii; experiment: Antifungal activity against Candida krusei 4996 assessed as inhibition of fungal growth incubated for 48 hrs by CLSI based broth microdilution assay; format: functional
[7] = tested on: Candida tropicalis; experiment: Antifungal activity against Candida tropicalis 8915 assessed as inhibition of fungal growth incubated for 48 hrs by CLSI based broth microdilution assay; format: functional
[8] = tested on: Candida albicans; experiment: Antifungal activity against fluconazole-resistant Candida albicans 904 assessed as inhibition of fungal growth incubated for 48 hrs by CLSI based broth microdilution assay; format: functional
[9] = tested on: [Candida] auris; experiment: Antifungal activity against fluconazole-resistant Candida auris 918 assessed as inhibition of fungal growth incubated for 48 hrs by CLSI based broth microdilution assay; format: functional; settings: Candidozyma auris
[10] = tested on: Saccharomyces cerevisiae; experiment: Antifungal activity against recombinant Saccharomyces cerevisiae Y570 overexpressing CaCdr1 assessed as inhibition of fungal growth incubated for 48 hrs by CLSI based broth microdilution assay; format: functional
[11] = tested on: Saccharomyces cerevisiae; experiment: Antifungal activity against recombinant Saccharomyces cerevisiae Y2765 overexpressing CauMdr1 assessed as inhibition of fungal growth incubated for 48 hrs by CLSI based broth microdilution assay; format: functional
[12] = tested on: Saccharomyces cerevisiae; experiment: Antifungal activity against recombinant Saccharomyces cerevisiae Y2411 overexpressing ScErg11 assessed as inhibition of fungal growth incubated for 48 hrs by CLSI based broth microdilution assay; format: functional
[13] = tested on: Saccharomyces cerevisiae; experiment: Antifungal activity against recombinant Saccharomyces cerevisiae Y2300 overexpressing ScErg11 assessed as inhibition of fungal growth incubated for 48 hrs by CLSI based broth microdilution assay; format: functional
[14] = tested on: Saccharomyces cerevisiae; experiment: Antifungal activity against recombinant Saccharomyces cerevisiae Y2462 overexpressing ScErg11/ScNcp1 assessed as inhibition of fungal growth incubated for 48 hrs by CLSI based broth microdilution assay; format: functional
[15] = tested on: Saccharomyces cerevisiae; experiment: Antifungal activity against recombinant Saccharomyces cerevisiae Y2721 overexpressing CpErg11/CpCpr assessed as inhibition of fungal growth incubated for 48 hrs by CLSI based broth microdilution assay; format: functional
[16] = tested on: Saccharomyces cerevisiae; experiment: Antifungal activity against recombinant Saccharomyces cerevisiae Y2767 overexpressing CauErg11 assessed as inhibition of fungal growth incubated for 48 hrs by CLSI based broth microdilution assay; format: functional
[17] = tested on: Saccharomyces cerevisiae; experiment: Antifungal activity against recombinant Saccharomyces cerevisiae Y2711 overexpressing CnErg11 assessed as inhibition of fungal growth incubated for 48 hrs by CLSI based broth microdilution assay; format: functional
[18] = tested on: Saccharomyces cerevisiae; experiment: Antifungal activity against recombinant Saccharomyces cerevisiae Y2301 overexpressing ScErg11 Y140F mutant assessed as inhibition of fungal growth incubated for 48 hrs by CLSI based broth microdilution assay; format: functional
[19] = tested on: Saccharomyces cerevisiae; experiment: Antifungal activity against recombinant Saccharomyces cerevisiae Y2513 overexpressing ScErg11 Y140H mutant assessed as inhibition of fungal growth incubated for 48 hrs by CLSI based broth microdilution assay; format: functional
[20] = tested on: Saccharomyces cerevisiae; experiment: Antifungal activity against recombinant Saccharomyces cerevisiae Y2716 overexpressing CpErg11 Y132F mutant/ CpCpr assessed as inhibition of fungal growth incubated for 48 hrs by CLSI based broth microdilution assay; format: functional
[21] = tested on: Saccharomyces cerevisiae; experiment: Antifungal activity against recombinant Saccharomyces cerevisiae Y2768 overexpressing CauErg11 T132F mutant assessed as inhibition of fungal growth incubated for 48 hrs by CLSI based broth microdilution assay; format: functional
[22] = tested on: Saccharomyces cerevisiae; experiment: Antifungal activity against recombinant Saccharomyces cerevisiae Y2769 overexpressing CauErg11 K143R mutant assessed as inhibition of fungal growth incubated for 48 hrs by CLSI based broth microdilution assay; format: functional
[23] = tested on: Candida tropicalis; experiment: Potency index, ratio of ravuconazole MIC to test compound MIC for antifungal activity against Candida tropicalis 8915 assessed as inhibition of fungal growth incubated for 48 hrs by CLSI based broth microdilution assay; format: functional
[24] = tested on: Saccharomyces cerevisiae; experiment: Selectivity index, ratio of MIC for antifungal activity against recombinant Saccharomyces cerevisiae Y525 overexpressing CaMdr1 to MIC for antifungal activity against recombinant Saccharomyces cerevisiae Y2411 overexpressing ScErg11; format: functional
[25] = tested on: Candida albicans; experiment: Antifungal activity against Candida albicans SC5314 assessed as inhibition of fungal growth at 0.125 ug/ml after 48 hrs by TECAN plate reader analysis relative to control; format: functional
[26] = tested on: Cryptococcus neoformans; experiment: Antifungal activity against Cryptococcus neoformans 32609 assessed as inhibition of fungal growth at 0.125 ug/ml measured up to 48 hrs by TECAN plate reader analysis; format: functional, organism-based; settings: dose 0.125 µg/ml
[27] = tested on: Nakaseomyces glabratus; experiment: Antifungal activity against Candida glabrata 537 assessed as inhibition of fungal growth at 2 ug/ml measured up to 48 hrs by TECAN plate reader analysis; format: functional, organism-based; settings: dose 2.0 µg/ml
[28] = tested on: Candida albicans; experiment: Antifungal activity against Candida albicans SC5314 assessed as inhibition of hyphae length after 3 hrs by inverted microscopic analysis; format: functional, organism-based; settings: dose 0.0625-1 µg/ml
[29] = tested on: Candida albicans; experiment: Antibiofilm activity against Candida albicans SC5314 assessed as inhibition of biofilm formation at 64 ug/mL incubated for 24 hrs by XTT assay relative to control; format: functional
[30] = tested on: Candida albicans; experiment: Antibiofilm activity against Candida albicans SC5314 assessed as increase in matured biofilm distruption incubated for 24 hrs by XTT assay; format: functional, organism-based; settings: dose 0.25-64 µg/ml
[31] = tested on: Candida albicans; experiment: Antibiofilm activity against Candida albicans SC5314 assessed as increase in matured biofilm distruption at 64 ug/ml incubated for 24 hrs by XTT assay relative to control; format: functional; settings: dose 64 µg/ml
[32] = target: T1, Lanosterol 14-alpha demethylase (Candida albicans (strain SC5314 / ATCC MYA-2876) (Yeast), UniProt P10613); experiment: Inhibition of CYP51 in Candida albicans SC5314 assessed as ergosterol level at 0.0625 ug/ml after 8 hrs by GC-MS analysis (reference value: 86.2 %); design: scale not given: the % may be the effect or the level left; settings: at 0.0625 µg/mL
[33] = target: T1, Lanosterol 14-alpha demethylase; experiment: Inhibition of CYP51 in Candida albicans SC5314 assessed as 14alpha-methylfecosterol level at 0.0625 ug/ml after 8 hrs by GC-MS analysis relative to control; design: scale not given: the % may be the effect or the level left; settings: at 0.0625 µg/mL
[34] = target: T1, Lanosterol 14-alpha demethylase; experiment: Inhibition of CYP51 in Candida albicans SC5314 assessed as obtusifoliol level at 0.0625 ug/ml after 8 hrs by GC-MS analysis relative to control; design: scale not given: the % may be the effect or the level left; settings: at 0.0625 µg/mL
[35] = tested on: Cell membrane; experiment: Induction of membrane permeabilization in Candida albicans SC5314 assessed as increase in fluorescence at 0.0625 to 0.5 ug/ml incubated for 8 hrs by propidium iodide staining based fluorescence microscopic analysis; settings: dose 0.0625-0.5 µg/ml
[36] = Cytotoxicity against HUVEC cells assessed as cell viability at 128 ug/ml incubated for 24 hrs by CCK-8 assay relative to control; format: toxicity, cell-based; settings: human, at 128 µg/mL, read-out: Activity

T1 sequence (P10613 whole entry): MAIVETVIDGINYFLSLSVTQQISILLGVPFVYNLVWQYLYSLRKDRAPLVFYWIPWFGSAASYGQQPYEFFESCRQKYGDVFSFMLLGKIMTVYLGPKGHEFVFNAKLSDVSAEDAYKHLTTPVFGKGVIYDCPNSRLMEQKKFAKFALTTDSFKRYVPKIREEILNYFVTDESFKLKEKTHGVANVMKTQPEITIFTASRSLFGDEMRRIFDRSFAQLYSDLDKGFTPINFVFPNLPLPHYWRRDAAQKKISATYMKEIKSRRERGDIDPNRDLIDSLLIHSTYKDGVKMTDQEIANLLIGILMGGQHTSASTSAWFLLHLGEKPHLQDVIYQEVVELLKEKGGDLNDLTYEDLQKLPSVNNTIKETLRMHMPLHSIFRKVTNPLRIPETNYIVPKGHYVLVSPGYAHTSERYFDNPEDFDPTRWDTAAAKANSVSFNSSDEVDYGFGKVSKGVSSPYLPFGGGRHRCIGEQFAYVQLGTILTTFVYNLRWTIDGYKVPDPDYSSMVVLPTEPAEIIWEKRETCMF

`C[C@@H](OCc1ccn(Cc2ccc(Cl)cc2)n1)[C@](O)(Cn1cncn1)c1ccc(F)cc1F` showed an MIC [1] of at most 0.125 µg/mL, an MIC [2] of at most 0.125 µg/mL and an MIC [3] of at most 0.125 µg/mL. The MIC [4] was at most 0.125 µg/mL, the MIC [5] was 0.25 µg/mL (≈ 0.528 µM) and the MIC [6] was 2 µg/mL (≈ 4.22 µM). The MIC [7] was 0.25 µg/mL (≈ 0.528 µM), the MIC [8] was 8 µg/mL (≈ 16.9 µM) and the MIC [9] was 8 µg/mL (≈ 16.9 µM). It also gave an MIC [10] of 16 µg/mL, an MIC [11] of 0.063 µg/mL and an MIC [12] of 0.008 µg/mL. It also gave an MIC [13] of 0.0313 µg/mL, an MIC [14] of 0.0313 µg/mL and an MIC [15] of 0.016 µg/mL. For the same molecule, the MIC [16] was 0.008 µg/mL, the MIC [17] was 0.008 µg/mL and the MIC [18] was 0.008 µg/mL. It also gave an MIC [19] of 0.008 µg/mL, an MIC [20] of 0.016 µg/mL and an MIC [21] of 0.0313 µg/mL. For the same molecule, the MIC [22] was 0.008 µg/mL, the Ratio [23] was 32 and the Ratio [24] was 16. The inhibition at 0.125 µg/mL [25] was 100%, the inhibition [26] was “Active” and the inhibition [27] was “inactive”. For the same molecule, the inhibition [28] was “Dose-Dependent Effect”, the inhibition at 64 µg/mL [29] was over 55% and the Activity [30] was “Dose-Dependent Effect”. The Activity [31] was 57.3%, the Activity [32] was 0% and the Activity [33] was ~ 20%. For the same molecule, the Activity [34] was ~ 20%, the Activity [35] was “Active” and the viability at 24 h, 128 ug/ml [36] was 64.5%.
